We go through eight compounds from patent US20090233979A1, “Indole Derivatives and Their Use as Thyroid Receptor Ligands” (KARO BIO AB, priority 2006, published 2009).

The structures appear in SMILES notation.

One assay has as its target T1, human ThRβ1 (Homo sapiens, UniProt P10828).
T1 construct: The cDNAs encoding the full length human ThRα1 and ThRβ1; expressed in transfected cells
T1 sequence (P10828 1-461): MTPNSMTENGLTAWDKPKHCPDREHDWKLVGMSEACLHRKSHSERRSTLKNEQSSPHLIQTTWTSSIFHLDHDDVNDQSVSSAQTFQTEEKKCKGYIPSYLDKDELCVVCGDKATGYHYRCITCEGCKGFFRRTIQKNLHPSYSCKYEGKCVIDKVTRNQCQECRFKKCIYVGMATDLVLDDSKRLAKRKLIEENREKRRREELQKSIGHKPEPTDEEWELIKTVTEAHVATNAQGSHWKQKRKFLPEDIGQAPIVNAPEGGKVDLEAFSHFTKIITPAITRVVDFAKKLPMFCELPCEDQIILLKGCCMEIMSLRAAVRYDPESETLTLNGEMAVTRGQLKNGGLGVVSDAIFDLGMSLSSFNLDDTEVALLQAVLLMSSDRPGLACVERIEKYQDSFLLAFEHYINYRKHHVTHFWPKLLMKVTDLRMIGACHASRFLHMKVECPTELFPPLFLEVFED
Briefly: Reporter cell line (TRAF) assay, CHO/hThRβ1, alkaline phosphatase reporter. The format is cell-based. To be noted: CHO/hThRβ1 reporter cells, 48 hours incubation; read-out: β % agonism. An excerpt: Vector Constructs, Generation of Reporter Cell Lines (TRAF), and Assay Procedure.
The cDNAs encoding the full length human ThRα1 and ThRβ1 were cloned in the mammalian expression vector pMT-hGH. The pDR4-ALP reporter vector contains one copy of the direct repeat sequence AGGTCA nnnnAGGTCA, fused upstream of the core promoter sequences of the mouse mammary tumor virus long terminal repeat (MMTV), replacing the glucocorticoid response elements. The DR4-MMTV promoter fragment was then cloned in the 5′ end of the cDNA encoding human placental alkaline phosphatase (ALP), followed in the 3′-end by the polyA-signal sequence of the human growth hormone gene. Chinese hamster ovary (CHO) K1 cells (ATCC No. CCL 61) were transfected in two steps, first with the receptor expression vectors pMT-hThRα1 and pMT-ThRβ1, respectively, and the drug resistance vector pSV2-Neo, and in the second step, with the reporter vector pDR4-ALP and the drug resistance vector pKSV-Hyg. Individual drug resistant clones were isolated and selected based on T3 inducibility. One stable reporter cell clone each of CHO/hThRα1 and CHO/hThRβ1 were chosen for further study in response to various thyroid hormone agonists.
CHO/hThRα1 and CHO/hThRβ1 were seeded in growth medium (Coon's/F12, 10% L-3,5,3′-triiodothyronine and L-thyroxine depleted FCS, 2 mM L-glutamine) in 96-well plates at 20×10^3 cells per well. After 24 hour incubation at 37° C. in humidified chambers, at 5% CO2, conditioned medium was replaced by induction medium (OptiMEM, 2 mM L-glutamine, […] gentamycin) and cells were exposed to the test compounds at serial dilutions, at final DMSO concentration of 0.5%, or to serial dilution of T3 (positive control), to assess agonist activity of test compounds.
In order to examine antagonistic effect of test compounds, CHO/hThRα1 and […] were exposed to serial dilution of the compounds in the presence of 1 nM T3 (CHO/hThRα1) or 3 nM T3 (CHO/hThRβ1).
After 48 hours incubation at 37° C. in humidified chambers at 5% CO2 the level of alkaline phosphatase expressed and secreted into the cell culture medium was analyzed by chemiluminescence on MicroBeta Trilux.

The target of the next assay is T2, hTRβ (Homo sapiens, UniProt P10828).
T2 sequence (P10828 1-461): T1 sequence (P10828 1-461)
Briefly: TR competition binding assay with filter separation. To be noted: for IC50: competition with tracer 125I-T3, full length hTRβ, read-out: TR-β IC50; for binding to the TR-β receptor and/or agonistic activity compared to compounds lacking a substituent in the 2-position on the indole ring: versus Comparative Examples 1, 3, 4. How it is done:
TR Competition Binding Assay with Filter Separation
Compounds are tested for their ability to compete with the tracer ^125I-T3 for binding to full length hTRα and hTRβ. Receptor extracts and tracer are diluted in assay buffer (17 mM K2HPO4, 3 mM KH2PO4, 400 mM KCl, 1 mM MgCl2, 0.5 mM EDTA and 8.7% glycerol). ^125I-T3 is diluted to a final concentration of 0.2 nM and receptor is diluted to reach a final count in Trilux Microbeta of approximately 10000 ccpm. […] To 96 well microtiter plates are 100 μl tracer, 4 μl test compound dilution series and 100 μl receptor dilution added. The assay plates are incubated at +4° C. over night (app. 16 hrs incubation). Receptor bound and free tracer are separated over a glass fiber filter ([…] B, PerkinElmer)) on a Tomtec Cellharvester with 18 mM K2HPO4, 2 mM KH2PO4, 0.5 mM EDTA wash buffer. The filters are dried at 60° C. for 1 hour and then merged with a scintillant wax (MELTILEX, PerkinElmer) on a Wallac Microsealer before measuring in a Trilux Microbeta. IC50s, the concentration test compound needed to decrease tracer binding by 50 percent, are generated via analysis of data in XLfit version 2.0 or later with a four parameter logistic model.

As to `CCCc1c(-c2ccc(OC)cc2)[nH]c2ccc(Oc3c(Br)cc(CCC(=O)O)cc3Br)cc12` [Example 13, 3-(3,5-dibromo-4-{[2-(4-methoxyphenyl)-3-propyl-1H-indol-5-yl]oxy}phenyl)propanoic acid], the Emax at human ThRβ1 was found to be 70.7%. Moreover, on hTRβ, the IC50 worked out at 8.88 nM and the “binding to the TR-β receptor and/or agonistic activity compared to compounds lacking a substituent in the 2-position on the indole ring” value was “improved binding to the TR-β receptor and/or improved agonistic activity”.
Taken in the same sequence, the figures for `CCc1c(-c2ccc3c(c2)OCO3)[nH]c2ccc(Oc3c(Br)cc(CCC(=O)O)cc3Br)cc12` [Example 9, 3-(4-{[2-(1,3-benzodioxol-5-yl)-3-ethyl-1H-indol-5-yl]oxy}-3,5-dibromophenyl)propanoic acid] were 70.3%, 0.33 nM and “improved binding to the TR-β receptor and/or improved agonistic activity”.
For `CCc1c(-c2ccc(OC)cc2)[nH]c2ccc(Oc3c(Br)cc(CCC(=O)O)cc3Br)cc12` [Example 10, 3-(3,5-dibromo-4-{[2-(4-methoxyphenyl)-3-ethyl-1H-indol-5-yl]oxy}phenyl)propanoic acid], the Emax on human ThRβ1 amounted to 79.7%. Besides, at hTRβ, the IC50 came out at 2.77 nM and the “binding to the TR-β receptor and/or agonistic activity compared to compounds lacking a substituent in the 2-position on the indole ring” value is listed as “improved binding to the TR-β receptor and/or improved agonistic activity”.
Taken in the same sequence, the figures for `CCc1c(-c2ccc3c(c2)OCO3)[nH]c2ccc(Oc3c(Cl)cc(CCC(=O)O)cc3Cl)cc12` [Example 8, 3-(4-{[2-(1,3-benzodioxol-5-yl)-3-ethyl-1H-indol-5-yl]oxy}-3,5-dichlorophenyl)propanoic acid] were 76.9%, 2.5 nM and “improved binding to the TR-β receptor and/or improved agonistic activity”.
For the compound `COc1ccc(-c2[nH]c3ccc(Oc4c(Cl)cc(CCC(=O)O)cc4Cl)cc3c2C(C)C)cc1` [Comparative Example 2, 3-{3,5-Dichloro-4-[3-isopropyl-2-(4-methoxy-phenyl)-1H-indol-5-yloxy]-phenyl}-propionic acid, reference compound], the Emax at human ThRβ1 stood at 80.2%. Besides, the IC50 on hTRβ worked out at 51.5 nM.
For the compound `CCOC(=O)CNc1cc(C)c(Oc2ccc3[nH]cc(C(C)C)c3c2)c(C)c1` [compound 3, reference compound], the Emax at human ThRβ1 stood at 69.7%. For the same compound, on hTRβ, the IC50 is 326 nM.
In the case of `COc1ccc(-c2[nH]c3ccc(Oc4c(Br)cc(CCC(=O)O)cc4Br)cc3c2C)cc1` [Example 3, 3-(3,5-dibromo-4-{[2-(4-methoxyphenyl)-3-methyl-1H-indol-5-yl]oxy}phenyl)propanoic acid], the Emax at human ThRβ1 worked out at 97.5%. In addition, on hTRβ, the half-maximal inhibitory concentration (IC50) worked out at 7.16 nM and the “binding to the TR-β receptor and/or agonistic activity compared to compounds lacking a substituent in the 2-position on the indole ring” value is “improved binding to the TR-β receptor and/or improved agonistic activity”.
Regarding `Cc1cc(NCC(=O)O)cc(C)c1Oc1ccc2[nH]cc(C(C)C)c2c1` [compound 4, reference compound], at human ThRβ1, the Emax came out at 39.7%. Besides, the IC50 on hTRβ was determined as 43.1 nM.
